Measurements as given in ChEMBL document CHEMBL2163289, “The discovery of N-[5-(4-bromophenyl)-6-[2-[(5-bromo-2-pyrimidinyl)oxy]ethoxy]-4-pyrimidinyl]-N'-propylsulfamide (Macitentan), an orally active, potent dual endothelin receptor antagonist” (J Med Chem, 2012).
Calls of active or inactive are those of the source. The calls are words filed in the database; no cut-off is given here. Where a SMILES comes first, the peptide text is derived from it. [ ]: non-standard residue; d: D form.

Columns and labels:
Endothelin-1 receptor = target: T1, Endothelin-1 receptor (Homo sapiens, UniProt P25101); assay: Displacement of [I125]ET1 from recombinant ETA receptor expressed in CHO cells after 2 hrs by TopCount analysis; format: cell-based
T1 sequence (P25101 whole entry): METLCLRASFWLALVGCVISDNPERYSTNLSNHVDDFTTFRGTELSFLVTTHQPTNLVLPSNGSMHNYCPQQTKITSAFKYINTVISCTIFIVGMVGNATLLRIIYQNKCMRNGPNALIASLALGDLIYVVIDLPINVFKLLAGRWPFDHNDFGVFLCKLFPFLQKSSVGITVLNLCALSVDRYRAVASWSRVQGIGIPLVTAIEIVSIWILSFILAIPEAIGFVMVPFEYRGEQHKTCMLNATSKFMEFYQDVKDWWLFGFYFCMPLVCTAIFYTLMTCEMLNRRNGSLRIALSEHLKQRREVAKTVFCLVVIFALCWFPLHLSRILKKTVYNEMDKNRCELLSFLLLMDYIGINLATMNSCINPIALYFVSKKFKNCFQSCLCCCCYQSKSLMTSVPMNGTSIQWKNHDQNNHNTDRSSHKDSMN

Rattus norvegicus [1] = assay: Antihypertensive activity in telemeterized hypertensive Dahl salt-sensitive rat assessed as reduction in mean arterial blood pressure at 3 mg/kg, po measured over 6 hrs; format: functional, Artery
Rattus norvegicus [2] = assay: Cmax in Wistar rat assessed as N-[5-(4-Bromophenyl)-6-[2-[(5-bromo-2-pyrimidinyl)oxy]ethoxy]-4-pyrimidinyl]-sulfamide level at 10 mg/kg, po at 6 hrs; format: ADME, organism-based; set-up: dose 10 mg/kg, route oral; conditions: in vivo
Rattus norvegicus [3] = assay: Effect on heart rate in telemeterized hypertensive Dahl salt-sensitive rat at 3 mg/kg, po

COc1ccccc1Oc1c(NS(=O)(=O)CCc2ccccc2)nc(-c2ncccn2)nc1OCCOc1ncccn1 gave an IC50 (Endothelin-1 receptor) of 8 nM.

With O=S(=O)(Nc1ncnc(OCCOc2ncc(Br)cn2)c1-c1ccc(Br)cc1)N1CCOCC1 the IC50 (Endothelin-1 receptor) was 2.8 nM.

With CCCNS(=O)(=O)Nc1ncnc(OCCOc2ncc(Br)cn2)c1Oc1cc(OC)ccc1Cl the IC50 (Endothelin-1 receptor) was 0.4 nM and the “Fall in mean arterial blood pressure” value (Rattus norvegicus [1]) was 21 mmHg.

Compound COc1ccccc1Oc1c(NS(=O)(=O)NCc2ccccc2)nc(-c2cnccn2)nc1OCCOc1ncc(Br)cn1 has an IC50 (Endothelin-1 receptor) of 2.1 nM.

For CCCNS(=O)(=O)Nc1ncnc(OCCOc2ncc(Br)cn2)c1Oc1cccc(OC)c1, the IC50 (Endothelin-1 receptor) was 1.9 nM and the “Fall in mean arterial blood pressure” value (Rattus norvegicus [1]) was 15 mmHg.

Compound COc1ccccc1Oc1c(NS(=O)(=O)NCc2ccccc2)nc(C2CC2)nc1OCCOc1ncc(Br)cn1 has an IC50 (Endothelin-1 receptor) of 14 nM.

In the case of CC(C)C[C@@H]1NC(=O)[C@@H](C(C)C)NC(=O)[C@@H]2CCCN2C(=O)[C@@H](CC(=O)O)NC(=O)[C@@H](Cc2c[nH]c3ccccc23)NC1=O [BQ-123] (cyclo(L[dW][dD]P[dV])), the IC50 (Endothelin-1 receptor) is reported as 20.5 nM.

With CCCS(=O)(=O)Nc1ncnc(OCCOc2ncc(Br)cn2)c1-c1ccc(Br)cc1 the IC50 (Endothelin-1 receptor) was 2.2 nM and the “Fall in mean arterial blood pressure” value (Rattus norvegicus [1]) was 25 mmHg.

COc1ccccc1Oc1c(NS(=O)(=O)CCc2ccccc2)nc(-c2ncccn2)nc1OCCOc1ncc(Br)cn1 was tested, and the IC50 (Endothelin-1 receptor) was 2.2 nM.

With COc1ccccc1Oc1c(NS(=O)(=O)CCc2ccccc2)nc(-c2ncccn2)nc1OCCOc1ncc(SC)cn1 the IC50 (Endothelin-1 receptor) was 1.1 nM.

In the case of COc1ccccc1Oc1c(NS(=O)(=O)NCc2ccccc2)ncnc1OCCOc1ncc(Br)cn1, the IC50 (Endothelin-1 receptor) is reported as 6.9 nM.

COc1ccccc1Oc1c(NS(=O)(=O)CCCc2ccccc2)nc(-c2ncccn2)nc1OCCOc1ncc(Br)cn1 gave an IC50 (Endothelin-1 receptor) of 6.7 nM.

In the case of COc1ccccc1Oc1c(NS(=O)(=O)NCc2ccccc2)nc(N2CCOCC2)nc1OCCOc1ncc(Br)cn1, the IC50 (Endothelin-1 receptor) is reported as 1.4 nM.

For CCCCNS(=O)(=O)Nc1nc(-c2ncccn2)nc(OCCOc2ncc(Br)cn2)c1Oc1ccccc1OC, the IC50 (Endothelin-1 receptor) was 1.7 nM.

In the case of COc1ccccc1Oc1c(NS(C)(=O)=O)nc(-c2ncccn2)nc1OCCOc1ncccn1, the IC50 (Endothelin-1 receptor) is reported as 739 nM.

With COc1ccccc1Oc1c(NS(=O)(=O)c2ccccc2)nc(-c2ncccn2)nc1OCCOc1ncc(Br)cn1 the IC50 (Endothelin-1 receptor) was 10.4 nM.

With COc1ccccc1Oc1c(NS(=O)(=O)c2ccc(C(C)(C)C)cc2)nc(-c2ncccn2)nc1OCCOc1ncc(Br)cn1 the IC50 (Endothelin-1 receptor) was 1.5 nM.

CC[C@H](C)[C@H](NC(=O)[C@@H](NC(=O)[C@H](CC(=O)O)NC(=O)[C@H](CCC(N)=O)NC(=O)[C@H](Cc1cnc[nH]1)NC(=O)[C@@H]1CSSC[C@H](N)C(=O)N[C@@H]([C@@H](C)O)C(=O)N[C@H]2CSSC[C@H](NC(=O)[C@H](CCC(=O)O)NC(=O)[C@H](CCC(=O)O)NC(=O)[C@H](CC(=O)O)NC(=O)[C@H]([C@@H](C)O)NC(=O)[C@H](CCSC)NC(=O)[C@H](CC(=O)O)NC(=O)[C@H](CC(N)=O)NC2=O)C(=O)N[C@@H](CC(C)C)C(=O)N[C@@H](CC(N)=O)C(=O)N[C@@H](Cc2ccccc2)C(=O)N1)C(C)C)C(=O)N[C@@H](Cc1c[nH]c2ccccc12)C(=O)O [SARAFOTOXIN 6C] gave an IC50 (Endothelin-1 receptor) greater than 100 nM.

With COc1ccccc1Oc1c(NS(=O)(=O)CCc2ccccc2)nc(-c2ncccn2)nc1OCCOc1ncc(C(F)(F)F)cn1 the IC50 (Endothelin-1 receptor) was 3 nM.

CCCNS(=O)(=O)Nc1nc(-c2ncccn2)nc(OCCOc2ncc(Br)cn2)c1Oc1ccccc1OC showed an IC50 (Endothelin-1 receptor) of 3.8 nM.

CN(Cc1ccccc1)S(=O)(=O)Nc1ncnc(OCCOc2ncc(Br)cn2)c1-c1ccc(Br)cc1 gave an IC50 (Endothelin-1 receptor) of 4.3 nM.

Work on COc1ccccc1Oc1c(NS(C)(=O)=O)nc(-c2ncccn2)nc1OCCOc1ncc(Br)cn1 yielded an IC50 (Endothelin-1 receptor) of 113 nM.

For COc1ccccc1Oc1c(NS(=O)(=O)CCc2ccccc2)nc(-c2ncccn2)nc1OCCOc1ncc(C)cn1, the IC50 (Endothelin-1 receptor) was 17.8 nM.

O=S(=O)(NCc1ccccc1)Nc1ncnc(OCCOc2ncc(Br)cn2)c1-c1ccccc1 was tested, and the IC50 (Endothelin-1 receptor) was 6.8 nM.

COc1ccccc1Oc1c(NS(=O)(=O)CCc2ccccc2)nc(-c2ncccn2)nc1OCCO gave an IC50 (Endothelin-1 receptor) of 25.7 nM.

In the case of COc1ccccc1Oc1c(NS(C)(=O)=O)nc(-c2ncccn2)nc1OCCO, the IC50 (Endothelin-1 receptor) is reported as 4530 nM.

In the case of COc1nc(NS(=O)(=O)NCc2ccccc2)c(Oc2ccccc2OC)c(OCCOc2ncc(Br)cn2)n1, the IC50 (Endothelin-1 receptor) is reported as 40 nM.

CCCCNS(=O)(=O)Nc1ncnc(OCCOc2ncc(Br)cn2)c1-c1ccc(Br)cc1 was tested, and the IC50 (Endothelin-1 receptor) was 0.3 nM, the “Fall in mean arterial blood pressure” value (Rattus norvegicus [1]) was 16 mmHg and the Cmax (Rattus norvegicus [2]) was 4100 ng/mL.

CCCS(=O)(=O)Nc1nc(-c2ncccn2)nc(OCCOc2ncc(Br)cn2)c1Oc1ccccc1OC was tested, and the IC50 (Endothelin-1 receptor) was 9.4 nM.

For COc1cnc(OCCOc2nc(-c3ncccn3)nc(NS(=O)(=O)CCc3ccccc3)c2Oc2ccccc2OC)nc1, the IC50 (Endothelin-1 receptor) was 3.2 nM.

For Cc1ccc(-c2c(NS(=O)(=O)NCc3ccccc3)ncnc2OCCOc2ncc(Br)cn2)cc1, the IC50 (Endothelin-1 receptor) was 0.7 nM.

CCNS(=O)(=O)Nc1ncnc(OCCOc2ncc(Br)cn2)c1-c1ccc(Br)cc1 was tested, and the IC50 (Endothelin-1 receptor) was 0.8 nM and the “Fall in mean arterial blood pressure” value (Rattus norvegicus [1]) was 20 mmHg.

CNS(=O)(=O)Nc1ncnc(OCCOc2ncc(Br)cn2)c1-c1ccc(Br)cc1 was tested, and the IC50 (Endothelin-1 receptor) was 1.7 nM and the “Fall in mean arterial blood pressure” value (Rattus norvegicus [1]) was 21 mmHg.

CNS(=O)(=O)Nc1nc(-c2ncccn2)nc(OCCOc2ncc(Br)cn2)c1Oc1ccccc1OC gave an IC50 (Endothelin-1 receptor) of 7.9 nM.

Compound CCCNS(=O)(=O)Nc1ncnc(OCCOc2ncc(Br)cn2)c1-c1ccc(Cl)cc1 has an IC50 (Endothelin-1 receptor) of 1.2 nM.

With COc1ccccc1Oc1c(NS(=O)(=O)N2CCOCC2)nc(-c2ncccn2)nc1OCCOc1ncc(Br)cn1 the IC50 (Endothelin-1 receptor) was 187 nM.

For CCCCS(=O)(=O)Nc1ncnc(OCCOc2ncc(Br)cn2)c1-c1ccc(Br)cc1, the IC50 (Endothelin-1 receptor) was 1.1 nM and the “Fall in mean arterial blood pressure” value (Rattus norvegicus [1]) was 22 mmHg.

COc1ccccc1Oc1c(NS(=O)(=O)N(C)Cc2ccccc2)nc(-c2ncccn2)nc1OCCOc1ncc(Br)cn1 gave an IC50 (Endothelin-1 receptor) of 7 nM.

Work on NS(=O)(=O)Nc1ncnc(OCCOc2ncc(Br)cn2)c1-c1ccc(Br)cc1 [APROCITENTAN] yielded an IC50 (Endothelin-1 receptor) of 3.4 nM.

O=S(=O)(NCc1ccccc1)Nc1ncnc(OCCOc2ncc(Br)cn2)c1-c1ccc(Br)cc1 was tested, and the IC50 (Endothelin-1 receptor) was 1.6 nM, the “Fall in mean arterial blood pressure” value (Rattus norvegicus [1]) was 14 mmHg and the Activity (Rattus norvegicus [3]) was “inactive”.

CCS(=O)(=O)Nc1nc(-c2ncccn2)nc(OCCOc2ncc(Br)cn2)c1Oc1ccccc1OC gave an IC50 (Endothelin-1 receptor) of 14 nM.

Compound COc1ccccc1Oc1c(NS(=O)(=O)CCc2ccccc2)nc(-c2ncccn2)nc1OCCOc1ncc(Cl)cn1 has an IC50 (Endothelin-1 receptor) of 2.8 nM.

With CCc1ccc(-c2c(NS(=O)(=O)NCc3ccccc3)ncnc2OCCOc2ncc(Br)cn2)cc1 the IC50 (Endothelin-1 receptor) was 2.3 nM.

Work on COCCOc1nc(NS(=O)(=O)NCc2ccccc2)c(Oc2ccccc2OC)c(OCCOc2ncc(Br)cn2)n1 yielded an IC50 (Endothelin-1 receptor) of 6.9 nM.

COc1ccc(Cl)c(Oc2c(NS(=O)(=O)NCc3ccccc3)ncnc2OCCOc2ncc(Br)cn2)c1 was tested, and the IC50 (Endothelin-1 receptor) was 1.4 nM, the “Fall in mean arterial blood pressure” value (Rattus norvegicus [1]) was 24 mmHg and the Activity (Rattus norvegicus [3]) was “inactive”.

COc1ccccc1Oc1c(NS(=O)(=O)Cc2ccccc2)nc(-c2ncccn2)nc1OCCOc1ncc(Br)cn1 was tested, and the IC50 (Endothelin-1 receptor) was 73 nM.

With COc1cccc(Oc2c(NS(=O)(=O)NCc3ccccc3)ncnc2OCCOc2ncc(Br)cn2)c1 the IC50 (Endothelin-1 receptor) was 1 nM, the “Fall in mean arterial blood pressure” value (Rattus norvegicus [1]) was 10 mmHg and the Activity (Rattus norvegicus [3]) was “inactive”.

COc1cc(OC)nc(OCCOc2nc(-c3ncccn3)nc(NS(=O)(=O)CCc3ccccc3)c2Oc2ccccc2OC)n1 was tested, and the IC50 (Endothelin-1 receptor) was 4780 nM.

CCCCS(=O)(=O)Nc1nc(-c2ncccn2)nc(OCCOc2ncc(Br)cn2)c1Oc1ccccc1OC showed an IC50 (Endothelin-1 receptor) of 4.3 nM.

With CCNS(=O)(=O)Nc1nc(-c2ncccn2)nc(OCCOc2ncc(Br)cn2)c1Oc1ccccc1OC the IC50 (Endothelin-1 receptor) was 9.9 nM.

COc1ccccc1Oc1c(NS(=O)(=O)c2ccc(C(C)(C)C)cc2)nc(-c2ncccn2)nc1OCCOc1ncccn1 gave an IC50 (Endothelin-1 receptor) of 4.3 nM.

For O=S(=O)(NCc1ccccc1)Nc1ncnc(OCCOc2ncc(Br)cn2)c1-c1ccc(Cl)cc1, the IC50 (Endothelin-1 receptor) was 1.4 nM, the “Fall in mean arterial blood pressure” value (Rattus norvegicus [1]) was 18 mmHg and the Activity (Rattus norvegicus [3]) was “inactive”.

In the case of COc1ccccc1Oc1c(NS(=O)(=O)NCc2ccccc2)nc(-c2ccncc2)nc1OCCOc1ncc(Br)cn1, the IC50 (Endothelin-1 receptor) is reported as 3.4 nM.

In the case of COc1ccccc1Oc1c(NS(=O)(=O)NCc2ccccc2)nc(-c2ncccn2)nc1OCCOc1ncc(Br)cn1, the IC50 (Endothelin-1 receptor) is reported as 1.9 nM.

Compound CC(C)c1ccc(-c2c(NS(=O)(=O)NCc3ccccc3)ncnc2OCCOc2ncc(Br)cn2)cc1 has an IC50 (Endothelin-1 receptor) of 3.6 nM.

COc1ccccc1Oc1c(NS(=O)(=O)CCc2ccccc2)nc(-c2ncccn2)nc1OCCOc1ncc(C2CC2)cn1 gave an IC50 (Endothelin-1 receptor) of 7.7 nM.
